{
  "source": "ChEMBL document CHEMBL1131919",
  "about": "“Monocarboxylic-based phosphotyrosyl mimetics in the design of GRB2 SH2 domain inhibitors” (Bioorg Med Chem Lett, 1999)",
  "data": [
    {"target": "Growth factor receptor-bound protein 2 (Homo sapiens, UniProt P62993)", "sequence (P62993 whole entry)": "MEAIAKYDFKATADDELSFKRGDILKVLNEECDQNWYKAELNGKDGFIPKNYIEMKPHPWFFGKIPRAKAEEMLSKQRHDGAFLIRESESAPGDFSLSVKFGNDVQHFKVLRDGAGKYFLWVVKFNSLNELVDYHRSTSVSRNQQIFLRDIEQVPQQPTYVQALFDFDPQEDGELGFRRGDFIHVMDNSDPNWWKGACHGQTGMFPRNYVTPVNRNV", "assay": "Inhibitory concentration against Growth factor receptor bound protein 2 in MDA-MB-453 cells", "assay_type": "cell-based", "units": {"IC50": "µM"}, "values": [
      {"compound": "NC(Cc1ccc(OCC(=O)O)cc1)C(=O)O", "note": "(stereo not given)", "IC50": 2.5},
      {"compound": "NC(Cc1ccc(CC(=O)O)cc1)C(=O)O", "note": "(stereo not given)", "IC50": 65},
      {"compound": "NC(Cc1ccc(C(F)(F)C(=O)O)cc1)C(=O)O", "note": "(stereo not given)", "IC50": 28},
      {"compound": "NC(=O)C[C@H](NC(=O)C1(NC(=O)[C@@H](Cc2ccc(C(F)(F)C(=O)O)cc2)NC(=O)C(=O)O)CCCCC1)C(=O)NCCCc1cccc2ccccc12", "IC50": 2},
      {"compound": "NC(=O)C[C@H](NC(=O)C1(NC(=O)[C@@H](Cc2ccc(CC(=O)O)cc2)NC(=O)C(=O)O)CCCCC1)C(=O)NCCCc1cccc2ccccc12", "IC50": 0.6},
      {"compound": "CC(=O)N[C@H](Cc1ccc(OP(=O)(O)O)cc1)C(=O)NC1(C(=O)N[C@@H](CC(N)=O)C(=O)NCCCc2cccc3ccccc23)CCCCC1", "IC50": 0.007},
      {"compound": "CC(=O)N[C@H](Cc1ccc(C(F)(F)C(=O)O)cc1)C(=O)NC1(C(=O)N[C@@H](CC(N)=O)C(=O)NCCCc2cccc3ccccc23)CCCCC1", "IC50": 28},
      {"compound": "CC(=O)N[C@H](Cc1ccc(OCC(=O)O)cc1)C(=O)NC1(C(=O)N[C@@H](CC(N)=O)C(=O)NCCCc2cccc3ccccc23)CCCCC1", "IC50": 65},
      {"compound": "NC(=O)C[C@H](NC(=O)C1(NC(=O)[C@@H](Cc2ccc(OCC(=O)O)cc2)NC(=O)C(=O)O)CCCCC1)C(=O)NCCCc1cccc2ccccc12", "IC50": 15},
      {"compound": "CC(=O)N[C@H](Cc1ccc(CC(=O)O)cc1)C(=O)NC1(C(=O)N[C@@H](CC(N)=O)C(=O)NCCCc2cccc3ccccc23)CCCCC1", "IC50": 2.5}
    ]}
  ]
}
